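Five concentrations, 48 hours, 96-well plates. GI50 is the concentration that inhibits growth by half. TGI denotes the concentration required for complete inhibition of growth.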

Test systems include NCI-H522 lung; MDA-MB-435; DU-145 prostate; OVCAR-8 ovarian; SR leukemia; UO-31 renal; OVCAR-3 ovarian; NCI-H460 lung; SK-MEL-2 melanoma; NCI/ADR-RES ovarian.
Assay in all cases: NCI anticancer screen, dose series, 48 h

Turning to `O=C(/C=C/c1ccco1)c1cc(F)c(Cl)cc1Cl`, the GI50 is 18.4 µM in the assay on NCI-H522 lung; 32.2 µM in the assay with MDA-MB-435; 19.9 µM in the assay with DU-145 prostate; 24.5 µM in the assay with OVCAR-8 ovarian; 23 µM with SR leukemia; 17.1 µM in the assay on UO-31 renal. For the same compound, the GI50 in the assay with OVCAR-3 ovarian is 21.4 µM; with NCI-H460 lung, 24.2 µM; with SK-MEL-2 melanoma, 18.1 µM. The TGI in the assay on NCI-H522 lung is 39.5 µM; with MDA-MB-435, > 100 µM; with DU-145 prostate, 44.1 µM; in the assay on OVCAR-8 ovarian it was 68.3 µM; in the assay with SR leukemia, > 100 µM; in the assay on UO-31 renal, 34 µM. Also, the figures for the TGI with OVCAR-3 ovarian, with NCI-H460 lung and in the assay with SK-MEL-2 melanoma were 60.4 µM, 72.4 µM and 34.6 µM, respectively.
For `Nc1c(-c2cn(Cc3ccccc3)c3ccccc23)[n+]([O-])c2ccccc2[n+]1[O-]`, the TGI was 48.6 µM in the assay with NCI-H522 lung; > 100 µM in the assay with OVCAR-8 ovarian; 38.8 µM in the assay on UO-31 renal; 68.4 µM in the assay with OVCAR-3 ovarian; > 100 µM in the assay on NCI-H460 lung; 57 µM in the assay with SK-MEL-2 melanoma.
For the compound `COc1ccc(OC(C)=O)c2c1CCC=CC2=O`, the TGI in the assay on NCI-H522 lung amounted to 3.8 µM; in the assay with OVCAR-8 ovarian, 31.4 µM; with SR leukemia it was 40.3 µM; in the assay with UO-31 renal, 30.9 µM; in the assay on OVCAR-3 ovarian it was 29.3 µM; with NCI-H460 lung, 34.7 µM. This compound also had a TGI in the assay with SK-MEL-2 melanoma of 33.7 µM.
For `CC(=O)Nc1ccc(/C=c2\sc3nnc(CCC(=O)Nc4ccccc4Cl)n3c2=O)cc1`, the TGI in the assay on NCI-H522 lung is 36.2 µM; in the assay on OVCAR-8 ovarian, > 10 µM; with SR leukemia, 43.2 µM; in the assay with UO-31 renal, > 100 µM; in the assay with OVCAR-3 ovarian it was 47.4 µM; in the assay with NCI-H460 lung, > 10 µM. The TGI in the assay on SK-MEL-2 melanoma was determined as 81.9 µM.
On to `C#CCNC(=O)N(CC#C)N=O`, for which the TGI in the assay with NCI-H522 lung is 41.6 µM; with OVCAR-8 ovarian it was > 100 µM; with UO-31 renal, > 100 µM; in the assay with OVCAR-3 ovarian, > 100 µM; in the assay with NCI-H460 lung it was > 100 µM; with SK-MEL-2 melanoma, > 100 µM.
As to `COc1ccc(C(CCC(C)=O)C(=O)O)cc1OC` (stereo not drawn), the TGI in the assay on OVCAR-8 ovarian, in the assay with SR leukemia, in the assay with OVCAR-3 ovarian, in the assay on NCI-H460 lung and in the assay with SK-MEL-2 melanoma was > 100 µM in each case.
`CCN(CC)CC(C)(C)C(=O)/C=C/c1cccc(/C=C/C(=O)C(C)(C)CN(CC)CC)c1`: the TGI came to 1.47 µM in the assay on OVCAR-8 ovarian; 1.68 µM with SR leukemia; 3.17 µM in the assay on UO-31 renal; 2.31 µM with OVCAR-3 ovarian; 2.31 µM in the assay on NCI-H460 lung.
For the compound `C=C=C(C(=O)OC)S(=O)c1ccccc1[N+](=O)[O-]` (stereo not drawn), the TGI in the assay on NCI-H522 lung was 75.9 µM; with OVCAR-8 ovarian, > 100 µM; in the assay on UO-31 renal, > 100 µM; with OVCAR-3 ovarian it was > 100 µM; with NCI-H460 lung, > 100 µM; in the assay with SK-MEL-2 melanoma, > 100 µM.
For the compound `CC(=O)Nc1ccccc1-c1nc2ccccc2nc1C`, the TGI in the assay with NCI-H522 lung, in the assay with OVCAR-8 ovarian, in the assay on SR leukemia, with UO-31 renal, in the assay with OVCAR-3 ovarian and in the assay with NCI-H460 lung was > 100 µM each time. Besides, in the assay with SK-MEL-2 melanoma, the TGI was > 100 µM.
With `COC1OC(CO)C(O)C(OC(C)=O)C1NC(=O)N(CCCl)N=O` (stereo not drawn), the TGI in the assay with NCI-H522 lung is > 100 µM; in the assay with OVCAR-8 ovarian it was > 100 µM; in the assay with OVCAR-3 ovarian it was > 100 µM; with NCI-H460 lung, > 100 µM; with SK-MEL-2 melanoma, 8.75 µM.
Consider `C[C@]12CCc3nc(Nc4cccc(O)c4)sc3C1=CC[C@@H]1[C@@H]2CC[C@]2(C)/C(=N\NC(N)=S)CC[C@@H]12`, for which the GI50 with NCI-H522 lung was 1.7 µM; with MDA-MB-435, 1.76 µM; in the assay with OVCAR-8 ovarian, 2.57 µM; with UO-31 renal it was 1.4 µM; in the assay on OVCAR-3 ovarian, 1.4 µM; with NCI/ADR-RES ovarian it was 3.07 µM. Also, the GI50 was 1.96 µM in the assay on NCI-H460 lung and 2.32 µM in the assay with SK-MEL-2 melanoma. Besides, the TGI was 3.69 µM in the assay on NCI-H522 lung; 4.55 µM with MDA-MB-435; 10.9 µM in the assay on OVCAR-8 ovarian; 2.83 µM in the assay with UO-31 renal; 2.87 µM with OVCAR-3 ovarian; > 100 µM in the assay with NCI/ADR-RES ovarian. For the same compound, the TGI with NCI-H460 lung amounted to 4.05 µM; with SK-MEL-2 melanoma, 7.36 µM.
With `COc1ccccc1NC(=O)C1=C(C)NC(C)=C(C(=O)Nc2ccccc2OC)C1C1=CC=COC1`, the TGI was 40.4 µM in the assay with OVCAR-8 ovarian, > 100 µM in the assay with UO-31 renal, 9.5 µM in the assay on OVCAR-3 ovarian and 16.3 µM in the assay on NCI-H460 lung.
With `Cc1ccc(S(=O)(=O)c2ccc(NC(=O)SCCC(=O)O)cc2)cc1`, the TGI with NCI-H522 lung, in the assay with OVCAR-8 ovarian, in the assay with SR leukemia, in the assay on UO-31 renal, in the assay with OVCAR-3 ovarian and with NCI-H460 lung was > 100 µM in each case. The TGI in the assay on SK-MEL-2 melanoma is > 100 µM.
As to `CC1=C(O)c2cn(C)cc2C(=O)C1=O`, the TGI in the assay on OVCAR-8 ovarian, in the assay on SR leukemia, in the assay on UO-31 renal, with OVCAR-3 ovarian, in the assay with NCI-H460 lung and with SK-MEL-2 melanoma was > 100 µM throughout.
As to `O=C1CC(c2c(-c3ccccc3)[nH]c3ccccc23)C(=O)N1` (stereo not drawn), the TGI with OVCAR-8 ovarian, with UO-31 renal, with OVCAR-3 ovarian, with NCI-H460 lung and in the assay with SK-MEL-2 melanoma was > 100 µM each time.
Regarding `CO/C=C/C(=O)c1cc2cnc3c(=N)cc(NC(=O)C(C)C)c([nH]1)c23`, the GI50 was 0.969 µM in the assay with NCI-H522 lung; 0.0852 µM in the assay with MDA-MB-435; 0.0864 µM in the assay with DU-145 prostate; 0.113 µM in the assay on OVCAR-8 ovarian; 0.0489 µM in the assay on SR leukemia; 0.0169 µM in the assay on UO-31 renal. The values for the GI50 with OVCAR-3 ovarian, with NCI-H460 lung and in the assay with SK-MEL-2 melanoma were 0.0418 µM, 0.323 µM and 0.0907 µM, respectively. Moreover, the TGI stood at 11 µM in the assay with NCI-H522 lung; 0.836 µM with MDA-MB-435; 6.35 µM in the assay with DU-145 prostate; 1.02 µM in the assay on OVCAR-8 ovarian; 0.427 µM in the assay on SR leukemia; 0.323 µM with UO-31 renal. Besides, the TGI is 0.353 µM with OVCAR-3 ovarian, 11.4 µM with NCI-H460 lung and 0.299 µM in the assay on SK-MEL-2 melanoma.

Values taken from PubChem BioAssay (NCI).
